Test results reported in patent US10238631B2, “Sesquiterpene derivatives and their use in inflammation or cancer treatment” (Academia Sinica, priority 2014, dated 2019).
Where two headings read alike, the source gives them in different places.

What was measured:
[1] = test system: U-87MG brain cancer cell line; assay: MTT cell viability assay, U-87MG; assay type: cell-based; details: Homo sapiens, 24 h
Procedure: (§1) Normal or cancer cells (2×10^3 to 1×10^4 cells/well) were seeded in 96-well plate for overnight and treated with different compounds for 24 h to 72 h. Cells growth were determined by MTT-based colorimetric assays according to. Viability of the test cells treated with vehicle (0.5% DMSO) only was defined as 100% viable. Survival of cells after treatment with DETDs was calculated using the following formula: viable cell number (%)=OD570 (treated cell culture)/OD570 (vehicle control)×100.
(§2) Based on toxicity results of DET and DETDs on different breast cancer and melanoma cell lines, we selected DETD-6, -32, -35 and -39, under the consideration of structure activity relationship for evaluating their suppression effect against other cancer types of cell line with indicated tumor origin in Table 5. […] The cells were treated with compounds for 24 h and then subjected to MTT assays.

[2] = test system: RAW264.7 (normal macrophage); assay: MTT cell viability assay, RAW264.7 macrophages; assay type: cell-based, mouse; details: for IC50: Mus musculus, RAW264.7, 24 h
How it was run: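 RAW264.7 macrophages (2×10^5 cells/well) pretreated with compounds 1 h, then incubated 24 h with or without 100 ng/μL LPS. Viability by MTT colorimetric assay run in parallel with Griess nitrite measurement.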

[3] = test system: MDA-MB-231 (ER−, PR−, Her2−) human breast cancer cells; assay: MTT cell viability assay, MDA-MB-231 cells; assay type: cell-based; details: for IC50: Homo sapiens
How it was run: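 Seed 2×10^3 to 1×10^4 cells/well, overnight. Treat with compounds 24 h to 72 h. Add MTT, read OD570. Express survival relative to 0.5% DMSO vehicle (100%).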

[4] = test system: MDA-MB-231 cells; assay: Combination with gluthathione biosynthesis blockers (BSO, sulfasalazine), MTT; details: for cell viability after pretreatment with BSO or sulfasalazine: 30 h pretreatment, then DET 12 μM or DETD-35 3 μM for 24 h; for combination effect with BSO: BSO at 0.5 μM, 3 μM, and above; for combination effect with sulfasalazine: sulfasalazine at 25 μM, 62 μM, and above
Procedure: Briefly, cells (5×10^3 cells/well) were seeded in 96-well plates and treated with BSO at concentrations 100 μM, 45 μM, 18 μM, 7.2 μM, 2.8 μM, 1.15 μM, 461 nM, 184 nM, 74 nM and 29 nM, and sulfasalazine at concentrations 62.75 μM, 25.10 μM, 10 μM, 4 μM, 1.6 μM, 642 nM, 257 nM, 102 nM, 41 nM and 16.4 nM for 30 h, and then 12 μM DET or 3 μM DETD-35 were added in the cultural medium to treat the cells for another 24 h. Cell proliferation was measured by MIT assay.

[5] = test system: LPS-induced nitric oxide (NO) production in RAW 264.7 cells; assay: Nitric oxide production in LPS-stimulated macrophages (Griess); assay type: cell-based, mouse; details: for IC50: Mus musculus, LPS-stimulated RAW264.7, nitrite 24 h after LPS
How it was run: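 RAW 264.7 macrophages (2×10^5 cells/well) were pretreated with compound for 1 h and then stimulated with 100 ng/μL LPS for 24 h. NO was measured as nitrite in the medium by the Griess reaction. Viability was checked in parallel by MTT.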

[6] = test system: A2058 (BRAF mutation); assay: MTT cell viability assay, A2058 melanoma; assay type: cell-based, human
How it was run: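 Overnight-seeded cells (2×10^3–1×10^4/well) → compound 24–72 h → MTT, OD570; % viable = treated/vehicle ×100, vehicle 0.5% DMSO.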

[7] = test system: MDA-MB-231 cell motility; assay: Time-lapse microscope analysis of cell motility; assay type: cell-based, human; details: 12 h, control 186
Procedure: A 12 well cell culture plate was coated with 25 μg/mL fibronectin for 1 h and then seeded with 5×10^4 MDA-MB-231 cells in DMEM containing 10% serum. Twelve hours after seeding, time-lapse microscopy experiments were performed on an Inverted Confocal Microscope (LSM 510 META) equipped with an environmental chamber with phase-contrast optics (images taken every 30 min). Using the object-tracking application of Metamorph software (Molecular Devices), an average of 12 subsequent cell centroid displacements/30 min between two consecutive images were evaluated as cell velocities of migration. In total, cell trajectories were recorded for 24 h. These assays were made in treatments with vehicle (DMSO, 0.05%), DET (2.5, 4 and 10 μM), and DETD-35 (1.25, 2.5, 4 μM) added at the beginning of the time-lapse imaging/video taping.

[8] = test system: A498 kidney cancer cell line; assay: MTT cell viability assay, A498; assay type: cell-based; details: Homo sapiens, 24 h
Procedure: as §1, §2

[9] = test system: A375-R PLX4032-resistant melanoma tumor; assay: A375-R melanoma xenograft model in NOD/SCID mice; assay type: in vivo, mouse; details: 20 mg/kg i.p. alone
Procedure: A375 and A375-R melanoma cells (3×10^6) were injected subcutaneously to the flanks of the six weeks old NOD/SCID mice. One week after the inoculation, the mice were randomized into treated groups (n=8 per group) and the treatments were started. Body weight and tumor volume of the mice were recorded every three days using formula a×b^2×0.5, where a and b represented the larger and smaller tumor diameters.
To study whether or not DETD-35 could overcome acquired resistance to BRAF inhibitor, we generated A375 cell line resistant to PLX4032 (designated A375-R) as described above. We then conducted A375-R orthotopic xenograft study.

[10] = test system: A375 (BRAF mutation); assay: MTT cell viability assay, A375 melanoma; assay type: cell-based, human; details: MTT
How it was run: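 A375 cells were seeded at 2×10^3 to 1×10^4 per well overnight and then exposed to compounds for 24 h to 72 h. Viability was measured by MTT absorbance at OD570 relative to 0.5% DMSO vehicle (100%), and IC50 was derived from it. Combination with PLX4032 was scored by combination index.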

[11] = test system: A375-R acquired vemurafenib resistance melanoma cells; assay: MTT cell viability assay, PLX4032-resistant A375-R; assay type: cell-based, human; details: Homo sapiens; 72 h, MTT
Procedure: A375-R, acquired vemurafenib resistance melanoma cell was generated from A375 parental cell and grown in same conditions as A375 cell.
as §1
To study the mechanisms underlying how DETD-35 overcomes acquired resistance to BRAF inhibitor, we generated A375 cell line resistant to PLX4032 (designated A375-R). Briefly, A375 melanoma cells were seeded in T75 plate and treated with ascending concentration of PLX4032 (20, 50, 100, 250, 500, 1000, 2000 nM) through approximately 2 months and 20 passages.

[12] = MDA-MB-231, 24 h, read-out: IC50 on cell viability, MDA-MB-231 (ER−, PR−, Her2−)
[13] = MDA-MB-231, Table 5, 24 h, read-out: IC50 viability MDA-MB-231 (Breast)
[14] = Homo sapiens, A-375, 24 h, 24 h, read-out: IC50 on cell viability, A375 (BRAF mutation)

| SMILES | IC50 [1] [µM] | IC50 [2] [µM] | IC50 [3, 12] [µM] | IC50 [3, 13] [µM] | cell viability after pretreatment with BSO or sulfasalazine [4] | combination effect with BSO [4] | combination effect with sulfasalazine [4] | IC50 [5] [µM] | IC50 ([6]; Homo sapiens, A2058, 24 h) [µM] | migration distance ([7]; 2.5 μM) [μm] | migration distance ([7]; 4 μM) [μm] | IC50 [8] [µM] | reduction of tumor mass [9] [%] | IC50 [10, 14] [µM] | other results |
| --- | --- | --- | --- | --- | --- | --- | --- | --- | --- | --- | --- | --- | --- | --- | --- |
| C=C(C)C(=O)O[C@H]1CC2=C[C@@H](C/C(C)=C/[C@H]3OC(=O)C(=C)[C@H]13)OC2=O [DET, deoxyelephantopin, reference compound] | 1 | > 10 | 14 | 14 | 1% or undetectable | synergistic effects | synergistic effects | 2.9 | > 10 | 144 | 15 | 2.82 | 32 | ~6 | cell viability, compound alone ([4]; DET 12 μM, DETD-35 3 μM, 24 h): around 70%; IC50 ([6]; 24 h): > 10 µM; migration distance ([7]; 10 μM): 9 μm; IC50 ([10]; 24 h, read-out: IC50 on cell viability, A375 (BRAF mutation)): 5.9 µM |
| C=C1C(=O)O[C@H]2CC3=C[C@@H](C/C(C)=C/[C@@H](OC(=O)Cc4cccc5ccccc45)[C@H]12)OC3=O [DETD-35] | 0.34 | > 10 | 3.5 | 3.5 | 1% or undetectable | synergistic effects | synergistic effects | 1.5 | 3.1 | 23 | 3 | 0.79 | 46.9 | 2.5 | IC50 on cell viability, RAW264.7 (normal macrophage) ([2]; 24 h): no detected toxicity; IC60 on MDA-MB-231 cells ([3]; 24 h): 3.32 µM; viability at 3 µM ([4]; Homo sapiens, MDA-MB-231, 24 h, read-out: cell viability, compound alone): ~90%; fold decrease in IC50 of NO production vs DET [5]: 2 fold; migration distance ([7]; 1.25 μM): 70 μm; IC50 [11]: 0.8 µM; IC50 ([10]; 72 h, read-out: IC50 on A375 cells): 0.8 µM; IC50 ([10]; Homo sapiens, A-375, 72 h, 72 h, read-out: IC50 on A375 cells): 0.85 µM |
